Data from patent US7553823B2, “C-pyrazole A2A receptor agonists” (CV Therapeutics, Inc., priority 1999, dated 2009).
Where two headings read alike, the source gives them in different places.

What was measured:
A2A AdoR [1] = experiment: Coronary blood flow and reversal time of coronary vasodilation in open-chest anesthetized pigs; details: pig
Description: Farm pigs weighing 22-27 kg were used in this study. […] In addition, animals were used in accordance with the guidelines of the University of Kentucky Institutional Animal Care and Use Protocol.
Anesthesia was anesthetized with ketamine (20 mg/kg, i.m.) and sodium pentobarbital (15-18 mg/kg i.v.). Anesthesia was maintained with additional sodium pentobarbital (1.5-2 mg/kg, i.v.) every 15-20 minutes. Ventilation was maintained via a tracheotomy using a mixture of room air and 100% O2. Tidal volume, respiratory rate and fraction of O2 in inspired air were adjusted to maintain normal arterial blood gas (ABG) and pH values. […] Lactate Ringers solution was administered via an ear or femoral vein, at 5-7 ml/kg/min after a initial bolus of 300-400 ml. A catheter was inserted into the femoral artery to monitor arterial blood pressure and to obtain ABG samples.
The heart was exposed through a median sternotomy, and suspended in a pericardial cradle. Left ventricular pressure (LVP) was measured with a 5F high fidelity pressure sensitive tip transducer (Millar Instruments, Houston, Tex.) placed in the left ventricular cavity via the apex and secured with a purse string suture. A segment of the left anterior descending coronary artery (LAD), proximal to the origin of the first diagonal branch, was dissected free of, surrounding tissue. A transmit time perivascular flow probe (Transonic Systems Inc., Ithaca, N.Y.) was placed around this segment to measure coronary blood flow (CBF). Proximal to the flow probe a 24 g modified angiocatheter was inserted for intracoronary infusions. […] A2A AdoR agonists were dissolved in DMSO to produce stock concentrations of 1-5 mM, which were diluted in 0.9% saline and infused at rates of 1-1.5 ml/min. The A2A AdoR agonists were administered intracoronary. To maintain blood pressure constant, phenylephrine was administered intravenously. The phenylephrine stock solution (30 mM) was prepared in distilled water.
Prior to initiating the experiment, a 30-minute stabilization period followed the completion of all instrumentation. After obtaining the baseline hemodynamic data the first intracoronary infusion of an A2A ADOR agonist was initiated. Infusions were maintained for 4-5 minutes to allow LAD CBF to reach a steadystate, after which the infusion was terminated. The time to recovery of 50% (t 0.5) and 90% (t 0.9) of baseline CBF were recorded. Ten to 15 minutes after CBF returned to pre-drug values a second infusion with a different agonist was started. […] The effect of a maximum of three different agonists was determined in each experiment.

A1 AdoR = molecular target: T1, A1 AdoR (Rattus norvegicus, UniProt P25099); experiment: A-V nodal conduction time (negative dromotropic effect) in rat isolated perfused hearts; details: Compound 18 0.1-30 μM, CVT510 100-400 nM
T1 construct: from tissue; host or cells: Sprague Dawley rat isolated perfused heart
T1 sequence (P25099 1-326): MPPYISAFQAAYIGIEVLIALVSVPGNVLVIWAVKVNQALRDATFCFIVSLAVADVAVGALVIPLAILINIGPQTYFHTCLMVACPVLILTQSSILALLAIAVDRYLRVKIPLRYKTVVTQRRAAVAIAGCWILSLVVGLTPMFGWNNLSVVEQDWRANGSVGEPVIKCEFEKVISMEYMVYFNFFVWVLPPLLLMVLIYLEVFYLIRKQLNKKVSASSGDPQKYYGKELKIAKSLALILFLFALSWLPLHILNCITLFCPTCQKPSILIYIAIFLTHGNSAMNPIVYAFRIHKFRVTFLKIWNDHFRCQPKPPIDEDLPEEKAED
Description: In experiments in which A1 adenosine receptor-mediated negative dromotropic effect was measured, atrial and ventricular surface electrograms were recorded during constant atrial pacing. The effect of various adenosine receptor agonists on atrioventricular conduction time was determined as described previously by Jenkins and Belardinelli Circ. Res. 63: 97-116 (1988).
Rats and guinea pigs, of either sex weighing from 230 to 260 grams and 300 to 350 grams, respectively, were used in this study. Animals were anesthetized by peritoneal injection of a cocktail containing ketamine and xylazine (ketamine 100 mg, xylazine 20 mg/ml). The chest was opened and the heart quickly removed. The heart was briefly rinse in ice-cold Krebs-Henseleit solution (see below), and the aorta cannulated. […]
A1 adenosine receptor-mediated depression of A-V nodal conduction time (negative dromotropic effect) was measured. Atrial and ventricular surface electrograms in rats and H is bundle electrogram in guinea pigs, were recorded during constant atrial pacing. The effects of Compound 18 on atrioventricular conduction time and stimulus-to-His-bundle (S-H interval) were determined as described previously by Jenkins and Belardinelli (1988).
The effects of Compound 18 on coronary conductance (A2A effect) and atrioventricular conduction time or stimulus-to-His-bundle (S-H) interval (A1 effect) was then determined. […]

human A1 AdoR = molecular target: T2, human A1 AdoR (Homo sapiens, UniProt P30542); experiment: Competition binding, [3H]DPCPX binding sites on CHO-hA1AdoR cell membranes; details: Gpp(NH)p 100 μM
T2 construct: expressed in transfected cells
T2 sequence (P30542 1-326): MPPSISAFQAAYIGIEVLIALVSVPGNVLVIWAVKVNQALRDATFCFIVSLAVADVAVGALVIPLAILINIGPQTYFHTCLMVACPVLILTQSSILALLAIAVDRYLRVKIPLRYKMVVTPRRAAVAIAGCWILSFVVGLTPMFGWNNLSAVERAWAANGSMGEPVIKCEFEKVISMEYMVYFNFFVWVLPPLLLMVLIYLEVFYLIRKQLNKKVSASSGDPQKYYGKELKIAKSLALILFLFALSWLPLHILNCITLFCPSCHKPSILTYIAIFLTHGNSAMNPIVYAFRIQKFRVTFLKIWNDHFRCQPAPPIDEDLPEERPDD

A2A receptor = A2A receptor (Sus scrofa, UniProt K9IW67); experiment: Affinity for the A2A receptor in a pig striatum membrane prep (displacement of tritiated ZM 241385); type: binding
Description: Compounds of this invention were assayed to determine their affinity for the A2A receptor in a pig striatum membrane prep. Briefly, 0.2 mg of pig striatal membranes were treated with adenosine deaminase and 50 mM Tris buffer (pH=7.4) followed by mixing. […] After incubation at 23 C for 2 h, then the solutions were filtered using a membrane harvester using multiple washing of the membranes (3×). The filter disks were counted in scintillation cocktail affording the amount of displacement of tritiated ZM by the competitive binding compounds of this invention. Greater than a 5 point curve was used to generate IC50's and the number of experiments is indicated in the column marked in Table 1 below.

A2A AdoR [2] = molecular target: A2A AdoR (Rattus norvegicus, UniProt P30543); experiment: Increase of coronary conductance in rat isolated perfused hearts
Description: (§1) Adult Sprague Dawley rats and Hartley guinea pigs of either sex weighing from 230 to 260 grams and 300 to 350 grams, respectively were used in this study. Animals were anesthetized by peritoneal injection of a cocktail containing ketamine and xylazine (ketamine 100 mg, xylazin 20 mg/ml). The chest was opened and the heart quickly removed. The heart was briefly rinse in ice-cold Krebs-Henseleit solution (see below), and the aorta cannulated. […] The heart was electrically paced at a fixed cycle length of 340 ms (250 beats/min) using a bipolar electrode place on the left atrium. The electrical stimuli were generated by a Grass stimulator (Model S48, W. Warwick, R.I.) and delivered through a Stimuli Isolation Unit (Model SIU5, Astro-Med, Inc., NY) as square-wave pulses of 3-msec in duration and amplitude of at least twice the threshold intensity.
Coronary perfusion pressure (CPP) was measured using a pressure transducer, connected to the aortic cannula via a T-connector positioned approximately 3 cm above the heart. Coronary perfusion pressure was monitored throughout the experiment and recorded either on a chart recorder (Gould Recorder 2200S) or a computerized recording system (PowerLab/4S, ADinstruments Pty Ltd, Australia). Only hearts with CPP ranging from 60 to 85 mmHg (in the absence of drugs) were used in the study.
One concentration was made from the stock solution by dilution into saline to yield solution of either 2×10^−4 or 2×10^−5 M. These solutions were injected into the perfusion line of the apparatus as boluses of 20 μl. In some experiments the solutions were placed into a 30 ml glass syringe and the drugs were infused at rates necessary to achieve the desired perfusate concentrations (e.g, 10, 100 nM, etc).
Hearts were instrumented for continuous recording of coronary perfusion pressure (A2A response) and atrioventricular (A-V) conduction time or S-H interval (A1 response).

human A2A AdoR = human A2A AdoR (Homo sapiens, UniProt P29274); experiment: Competition binding, [3H]ZM241385 binding sites on HEK-hA2AAR cell membranes; details: for Ki: HEK-hA2AAR Cells
Description: To make membranes, cells were detached from the culture plates into ice-cold 50 mmol/L Tris-HCI buffer (pH7.4). The cell suspensions were homogenized with Polytron at setting 4 for 30 seconds, and spun at 48,000 g for 15 minutes. The pellets were washed three times by re-suspension in ice-cold Tris-HCI buffer and centrifugation. The final pellet was re-suspended in a small volume of Tris-HCI, aliquoted and frozen at −80° C. until used for receptor binding assays. The protein concentration of membrane suspensions was determined using the Bradford method (Bio-Rad) with bovine serum as standards.
At the end of incubation, bound and free radioligands were separated by filtration through Whatman GF/C glass fiber filters using a Brandel tissue harvester (Gaithersburg, Md.). Triplicate determinations were performed for each concentration of the competing agent.
The affinity (Ki) of various CVT compounds for the A1 and A2A adenosine receptor were determined by their potency to compete for [^3H]CPX (A1) or [^3H]ZM241385 (A2A) binding sites on membranes derived from CHO-hA1AdoR, PC12 or HEK-HA2AAdoR cells.

A2A adenosine receptor = A2A adenosine receptor (Rattus norvegicus, UniProt P30543); experiment: Reversal time of coronary vasodilation after bolus injection in rat isolated perfused hearts
Description: Animals were anesthetized by peritoneal injection of a cocktail containing ketamine and xylazine (ketamine 100 mg, xylazine 20 mg/ml). The chest was opened and the heart quickly removed. The heart was briefly rinse in ice-cold Krebs-Henseleit solution (see below), and the aorta cannulated. […] The heart was electrically paced at a fixed cycle length of 340 ms (250 beats/min) using a bipolar electrode place on the left atrium. The electrical stimuli were generated by a Grass stimulator (Model S48, W. Warwick, R.I) and delivered through a Stimuli Isolation Unit (Model SIU5, Astro-Med, Inc., NY) as square-wave pulses of 3 msec in duration and amplitude of at least twice the threshold intensity.
Coronary perfusion pressure (CPP) was measured using a pressure transducer, connected to the aortic cannula via a T-connector positioned approximately 3 cm above the heart. Coronary perfusion pressure was monitored throughout the experiment and recorded either on a chart recorder (Gould Recorder 2200S) or a computerized recording system (PowerLab/4S, ADInstruments Pty Ltd, Australia). Only hearts with CPP ranging from 60 to 85 mmHg (in the absence of drugs) were used in the study.
Protocol: Bolus injections. […] The times to 50% (t 0.5) and 90% (t 0.9) reversal of the decrease in CPP were measured. Each heart was exposed to a maximum of three vasodilators.

A2A AdoR [3] = molecular target: A2A AdoR (Cavia porcellus, UniProt P46616); experiment: Increase of coronary conductance in guinea pig isolated perfused hearts
Description: as §1
Coronary perfusion pressure (CPP) was measured using a pressure transducer, connected to the aortic cannula via a T-connector positioned approximately 3 cm above the heart. Coronary perfusion pressure was monitored throughout the experiment and recorded either on a chart recorder (Gould Recorder 2200S) or a computerized recording system (PowerLab/4S, ADinstruments Pty Ltd, Australia). Only hearts with CPP ranging from 60 to 85 mmHg (in the absence of drugs) were used in the study. […]

[4] = intracoronary infusion 2 μg/kg/min
[5] = intracoronary infusion 30 μg/kg/min
[6] = pig striatal membranes, tritiated ZM 241385 2 nM, 23 C 2 h, read-out: A2a Ki
[7] = rat isolated perfused hearts, bolus into perfusion line
[8] = intracoronary infusion 1 μg/kg/min

Chain of A2A receptor (K9IW67 1-409): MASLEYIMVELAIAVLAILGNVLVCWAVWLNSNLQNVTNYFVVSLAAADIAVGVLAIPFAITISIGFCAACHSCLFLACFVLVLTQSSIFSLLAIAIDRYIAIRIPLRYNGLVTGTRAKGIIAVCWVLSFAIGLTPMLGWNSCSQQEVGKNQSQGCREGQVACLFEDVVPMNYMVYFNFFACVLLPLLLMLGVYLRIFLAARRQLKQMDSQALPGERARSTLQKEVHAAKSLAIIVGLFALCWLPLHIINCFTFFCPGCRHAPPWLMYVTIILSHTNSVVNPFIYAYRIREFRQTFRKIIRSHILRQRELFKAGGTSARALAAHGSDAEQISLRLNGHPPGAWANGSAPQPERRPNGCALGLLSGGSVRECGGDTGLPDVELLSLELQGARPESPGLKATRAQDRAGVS
Chain of A2A adenosine receptor (P30543 whole entry, the tested form may be a part): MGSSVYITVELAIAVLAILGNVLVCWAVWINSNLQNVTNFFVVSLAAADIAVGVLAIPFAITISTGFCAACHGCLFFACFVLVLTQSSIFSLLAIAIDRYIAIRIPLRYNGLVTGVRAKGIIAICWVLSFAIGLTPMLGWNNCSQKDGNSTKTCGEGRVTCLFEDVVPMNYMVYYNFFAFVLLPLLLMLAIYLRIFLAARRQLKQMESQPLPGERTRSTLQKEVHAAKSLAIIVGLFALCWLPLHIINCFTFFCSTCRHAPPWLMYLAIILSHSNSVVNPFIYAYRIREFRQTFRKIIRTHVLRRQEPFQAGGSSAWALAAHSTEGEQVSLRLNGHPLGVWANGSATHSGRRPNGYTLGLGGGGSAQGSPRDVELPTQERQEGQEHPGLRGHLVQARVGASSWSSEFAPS
Chain of A2A AdoR (Rattus norvegicus, UniProt P30543) (P30543 whole entry, the tested form may be a part): as above
Chain of human A2A AdoR (P29274 whole entry, the tested form may be a part): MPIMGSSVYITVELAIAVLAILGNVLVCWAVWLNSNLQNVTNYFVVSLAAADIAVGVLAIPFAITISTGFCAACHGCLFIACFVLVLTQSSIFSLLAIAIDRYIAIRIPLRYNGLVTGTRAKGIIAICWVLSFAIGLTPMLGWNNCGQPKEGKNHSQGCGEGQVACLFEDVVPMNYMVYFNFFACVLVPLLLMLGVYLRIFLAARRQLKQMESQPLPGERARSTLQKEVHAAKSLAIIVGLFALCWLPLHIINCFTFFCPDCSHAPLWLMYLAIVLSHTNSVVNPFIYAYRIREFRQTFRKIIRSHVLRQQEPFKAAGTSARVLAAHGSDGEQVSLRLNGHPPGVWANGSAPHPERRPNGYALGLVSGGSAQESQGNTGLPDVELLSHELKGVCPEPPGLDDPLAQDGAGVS
Chain of A2A AdoR (Cavia porcellus, UniProt P46616) (P46616 whole entry, the tested form may be a part): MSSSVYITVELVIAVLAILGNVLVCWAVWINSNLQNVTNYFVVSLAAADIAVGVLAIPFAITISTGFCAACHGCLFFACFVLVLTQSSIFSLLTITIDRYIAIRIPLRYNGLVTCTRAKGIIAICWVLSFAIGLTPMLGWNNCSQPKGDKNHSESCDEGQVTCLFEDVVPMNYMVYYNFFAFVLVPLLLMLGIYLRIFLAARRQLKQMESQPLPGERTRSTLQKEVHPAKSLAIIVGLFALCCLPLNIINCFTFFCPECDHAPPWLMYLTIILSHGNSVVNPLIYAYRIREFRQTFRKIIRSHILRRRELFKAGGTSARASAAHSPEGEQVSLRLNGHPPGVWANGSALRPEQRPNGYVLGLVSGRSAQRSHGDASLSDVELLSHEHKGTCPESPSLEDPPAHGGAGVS

CCNC(=O)[C@H]1O[C@@H](n2cnc3c(N)nc(NCCc4ccc(CCC(=O)O)cc4)nc32)[C@H](O)[C@@H]1O [CGS21680, reference compound]
t0.5, time to 50% reversal of the increase in coronary blood flow (A2A AdoR [1]; [4]): 9.7 ± 0.8 min
t0.9, time to 90% reversal of the increase in coronary blood flow (A2A AdoR [1]; [4]): 21.4 ± 0.8 min

OC[C@H]1OC(n2cnc3c(N[C@@H]4CCOC4)ncnc32)[C@H](O)[C@@H]1O (stereo partly drawn) [CVT510, 2-{6-[((3R)oxolan-3-yl)amino]purin-9-yl}(4S,3R,5R)-5-(hydroxymethyl)oxolane-3,4-diol, reference compound]
effect on A-V nodal conduction time (A1 AdoR): significantly prolonged

Nc1nc(-c2cnn(Cc3ccccc3)c2)nc2c1ncn2[C@@H]1O[C@H](CO)[C@@H](O)[C@H]1O [Compound 12, (4S,2R,3R,5R)-2-{6-amino-2-[1-benzylpyrazol-4-yl]purin-9-yl}-5-(hydroxymethyl)oxolane-3,4-diol]
Ki (human A1 AdoR; read-out: Binding Affinity Ki, CHO-hA1AR): 6.35 µM
Ki (human A1 AdoR; read-out: Binding Affinity pKi ± SEM, CHO-hA1AR (converted)): 6.03 µM
Ki (A2A receptor): 6.67 ± 1.12 µM
effect on coronary conductance (A2A AdoR [2]): concentration-dependent increase
relative potency in increasing coronary conductance (A2A AdoR [2]): about as potent as adenosine
Ki (human A2A AdoR; Binding Affinity Ki): 13.7 µM
Ki (human A2A AdoR; Binding Affinity pKi ± SEM): 13.5 µM
CBF ("Fold Increase") above baseline, maximal (A2A AdoR [1]; [5]): 3.78 ± 0.70 fold
t0.5, time to 50% reversal of the increase in coronary blood flow (A2A AdoR [1]; [5]): 2.3 ± 0.6 min
t0.9, time to 90% reversal of the increase in coronary blood flow (A2A AdoR [1]; [5]): 9.6 ± 1.0 min
t 0.5, time to 50% reversal of the increase in coronary conductance (A2A adenosine receptor): 4.1 ± 0.3 min
t 0.9, time to 90% reversal of the increase in coronary conductance (A2A adenosine receptor): 9.8 ± 1.4 min

CC(C)n1cc(-c2nc(N)c3ncn([C@@H]4O[C@H](CO[Si](C)(C)C(C)(C)C)[C@@H](O[Si](C)(C)C(C)(C)C)[C@H]4O[Si](C)(C)C(C)(C)C)c3n2)cn1 [Compound 16, 9-{(2R,3R,4R,5R)-3,4-bis(1,1,2,2-tetramethyl-1silapropoxy)-5-[(1,1,2,2-tetramethyl-1-silapropoxy)methyl]oxolan-2-yl}-2-[1-(1-methylethyl)pyrazol 4-yl]purine-6-ylamine]
A2A affinity (human A2A AdoR; conclusion of Example 5): low affinity A2A agonist

Cn1cc(-c2nc(N)c3ncn([C@@H]4O[C@H](CO)[C@@H](O)[C@H]4O)c3n2)cn1 [Compound 19, (4S,2R,3R,5R)-2-[6-amino-2-(1-methylpyrazol-4-yl)purin-9-yl]-5-(hydroxymethyl)oxolane-3,4-diol]
Ki (A2A receptor; [6]): > 10 µM

CC(C)n1cc(-c2nc(N)c3ncn([C@@H]4O[C@H](CO)[C@@H](O)[C@H]4O)c3n2)cn1 [Compound 20, (4S,2R,3R,5R)-2-{6-amino-2-[1-(methylethyl)pyrazol-4-yl]purin-9-yl}-5-(hydroxymethyl)oxolane-3,4-diol]
Ki (A2A receptor; [6]): ~10 µM

Nc1nc(-c2cnn(CCCc3ccccc3)c2)nc2c1ncn2C1O[C@H](CO)[C@@H](O)[C@H]1O (stereo partly drawn) [Compound 21, (4S,2R,3R,5R)-2-{6-amino-2-[1-(3-phenylpropyl)pyrazolyl-4-yl]purin-9-yl}-5-(hydroxymethyl)oxolane-3,4-diol]
Ki (A2A receptor; [6]): 6.13 ± 0.582 µM
t 0.5, time to 50% reversal of the increase in coronary conductance (A2A adenosine receptor; [7]): 8.3 ± 0.4 min
t 0.9, time to 90% reversal of the increase in coronary conductance (A2A adenosine receptor; [7]): 12.6 ± 0.4 min

CC(C)(C)c1ccc(Cn2cc(-c3nc(N)c4ncn([C@@H]5O[C@H](CO)[C@@H](O)[C@H]5O)c4n3)cn2)cc1 [Compound 22, (4S,2R,3R,5R)-2-{6-amino-2-[1-(4-t-butylbenzyl)pyrazol-4-yl]purin-9-yl}-5-(hydroxymethyl)oxolane-3,4-diol]
Ki (A2A receptor; [6]): 7.68 µM

Nc1nc(-c2cn[nH]c2)nc2c1ncn2[C@@H]1O[C@H](CO)[C@@H](O)[C@H]1O [Compound 23, (4S,2R,3R,5R)-2-(6-amino-2-pyrazol-4-ylpurin-9-yl)-5-(hydroxymethyl)oxolane-3,4-diol]
Ki (A2A receptor; [6]): > 100 µM

CCCCC#Cc1nc(N)c2ncn([C@@H]3O[C@H](C(=O)NCC)[C@@H](O)[C@H]3O)c2n1 [HENECA, reference compound]
t 0.5, time to 50% reversal of the increase in coronary conductance (A2A adenosine receptor; [7]): 28.6 ± 1.1 min
t 0.9, time to 90% reversal of the increase in coronary conductance (A2A adenosine receptor; [7]): 32.8 ± 3.1 min

Nc1nc(N/N=C/C2CCCCC2)nc2c1ncn2[C@@H]1O[C@H](CO)[C@@H](O)[C@H]1O [WRC-0470, reference compound]
EC50 (A2A AdoR [2]): 0.0006 ± 0.0002 µM
effect on coronary conductance (A2A AdoR [2]): concentration-dependent increase
t0.5, time to 50% reversal of the increase in coronary blood flow (A2A AdoR [1]; [8]): 9.5 ± 0.8 min
t0.9, time to 90% reversal of the increase in coronary blood flow (A2A AdoR [1]; [8]): 22.5 ± 1.6 min
EC50 (A2A AdoR [3]): 0.0024 ± 0.0011 µM
t 0.5, time to 50% reversal of the increase in coronary conductance (A2A adenosine receptor): 21.9 ± 0.9 min
t 0.9, time to 90% reversal of the increase in coronary conductance (A2A adenosine receptor): 27.9 ± 1.4 min

CCCCCCC#Cc1nc(N)c2ncn([C@@H]3O[C@H](CO)[C@@H](O)[C@H]3O)c2n1 [YT-146, reference compound]
CBF ("Fold Increase") above baseline, maximal (A2A AdoR [1]; [8]): 3.44 ± 0.47 fold
t0.9, time to 90% reversal of the increase in coronary blood flow (A2A AdoR [1]; [8]): 32.9 ± 5.6 min
t 0.5, time to 50% reversal of the increase in coronary conductance (A2A adenosine receptor; [7]): 17.7 ± 1.0 min
t 0.9, time to 90% reversal of the increase in coronary conductance (A2A adenosine receptor; [7]): 28.5 ± 4.0 min
